Reference: paper PMC9101642 (Molecules, 2022)
Read-outs that look alike come from different tables or passages of the source. Marks after values point to notes of the source that are not given here.

Tests used:
[1] = Pharmacokinetics study, oral bioavailability; conditions: rat
ERβ = ERβ (Homo sapiens, UniProt Q92731); experiment: Fluorescence polarization competition assay: antagonistic potency and relative binding affinity; conditions: for Ki: calculated antagonistic (inhibitory) constant, read-out: Ka ERβ; for IC50: concentration that antagonizes 50% of ERβ signaling activity, read-out: ERβ (IC50 nM); for logRBA ERβ: log of % relative binding affinity, estradiol = 100%
Sequence of ERβ (Q92731 whole entry): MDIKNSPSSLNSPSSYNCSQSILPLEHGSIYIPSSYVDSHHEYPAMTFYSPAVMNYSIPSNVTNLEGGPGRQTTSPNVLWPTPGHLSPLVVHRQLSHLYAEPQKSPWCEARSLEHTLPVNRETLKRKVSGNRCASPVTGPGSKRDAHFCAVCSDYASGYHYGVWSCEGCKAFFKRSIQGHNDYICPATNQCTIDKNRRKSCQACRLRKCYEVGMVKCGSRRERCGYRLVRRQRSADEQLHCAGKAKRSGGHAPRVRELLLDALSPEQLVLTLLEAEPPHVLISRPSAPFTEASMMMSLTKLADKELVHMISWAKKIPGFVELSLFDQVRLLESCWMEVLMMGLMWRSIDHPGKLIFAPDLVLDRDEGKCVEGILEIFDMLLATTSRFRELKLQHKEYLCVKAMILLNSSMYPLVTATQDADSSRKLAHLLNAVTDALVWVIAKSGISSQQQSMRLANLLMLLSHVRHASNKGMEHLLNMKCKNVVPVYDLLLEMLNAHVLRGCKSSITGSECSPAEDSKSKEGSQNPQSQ

[2] = tested on: MNU-induced breast cancer tissue; experiment: Histopathology of breast sections; assay type: in vivo, Wistar rats
In short: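 Rats with MNU-induced breast cancer were given selected leads at two concentrations. Breast tissue was examined histopathologically for lobuloalveolar units and epithelial changes, with slides photographed at 200x.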

[3] = tested on: MNU-induced breast cancer; experiment: In vivo anticancer screening, MNU-induced mammary tumorigenesis; parameters: species or system female Wistar rats
MDA-MB-231 cell lines = experiment: MTT antiproliferative assay; assay type: cell-based, human; conditions: Homo sapiens, read-out: MDA-MB-231 (IC50 nM)
[4] = Liver oxidative stress markers after treatment of MNU-induced rats; assay type: in vivo, Wistar rats; conditions: liver; for CAT: catalase activity; for GSH: reduced glutathione; for SOD (U/mg): superoxide dismutase activity; for TP: total protein content
In short: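 Mammary tumours induced in rats by MNU 50 mg/kg i.p. at day 50; after two weeks, compounds given orally at 5 or 50 mg/kg once daily for six weeks. Serum AST, ALT (340 nm), ALP (405 nm) and bilirubin measured; liver homogenate GSH, CAT, MDA by colorimetry; plasma binding by ultrafiltration at 37°C with BCA protein read-out.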

[5] = rat, in vivo
[6] = tested on: p53 promoter activity (p21 promoter); experiment: qChIP of ERα-p53 interaction on the p21 promoter in MCF-7; assay type: cell-based, human
[7] = MTT antiproliferative assay (neutral control); conditions: human
[8] = tested on: Ishikawa endometrial adenocarcinoma cells; experiment: Antiproliferative assay; assay type: cell-based; conditions: Homo sapiens, growth inhibition
ERα = target: T1, ERα (Homo sapiens, UniProt P03372); experiment: ERα down-regulation immunofluorescence assay in MCF-7; assay type: cell-based; conditions: ERα downregulation measured in MCF-7; read-out: MCF-7 DR (IC50 nM)
T1 sequence (P03372 1-595): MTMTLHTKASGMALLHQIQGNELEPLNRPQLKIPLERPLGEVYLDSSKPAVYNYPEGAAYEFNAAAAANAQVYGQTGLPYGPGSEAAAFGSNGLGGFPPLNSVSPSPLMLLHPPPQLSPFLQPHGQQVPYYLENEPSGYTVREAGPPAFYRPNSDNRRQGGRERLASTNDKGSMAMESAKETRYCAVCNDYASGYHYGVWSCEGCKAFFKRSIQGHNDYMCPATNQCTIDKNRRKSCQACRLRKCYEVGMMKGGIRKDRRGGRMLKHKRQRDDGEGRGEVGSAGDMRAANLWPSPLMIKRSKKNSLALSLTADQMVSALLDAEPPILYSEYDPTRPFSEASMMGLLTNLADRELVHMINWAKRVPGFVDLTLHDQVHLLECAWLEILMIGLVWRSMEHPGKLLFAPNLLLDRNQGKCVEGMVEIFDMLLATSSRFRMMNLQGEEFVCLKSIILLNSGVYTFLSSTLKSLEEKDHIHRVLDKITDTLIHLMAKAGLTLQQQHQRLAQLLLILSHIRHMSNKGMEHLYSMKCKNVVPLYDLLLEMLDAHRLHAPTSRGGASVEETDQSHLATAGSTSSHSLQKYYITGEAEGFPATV

[9] = tested on: progesterone receptor (PR); experiment: ERα functional antagonism cell assay (PR as biomarker) in MCF-7; assay type: cell-based; conditions: Homo sapiens, MCF7; progesterone receptor as biomarker for ERα antagonism in MCF-7
MCF-7 cells = experiment: Cell cycle distribution by flow cytometry; assay type: cell-based, human; conditions: 24 h
[10] = dose 50 mg/kg (compounds per os after MNU; MNU alone i.p.)
[11] = MDA-MB-231, growth inhibition, 48 h

| Compound | BIO ([1]; oral 5 mg/kg) | BIO ([1]; oral 50 mg/kg) | Ki (ERβ) [nM] | IC50 (ERβ) [nM] | logRBA ERβ (ERβ) | breast section histopathology ([2]; 5 mg/kg of bwt) | Tumor Burden (week) ([3]; dose 5 mg/kg per os after MNU) | Tumor Latency (week) ([3]; dose 5 mg/kg per os after MNU) | Tumor Volume (mm^3) ([3]; dose 5 mg/kg per os after MNU) | Tumor Burden (week) [3, 10] | Tumor Latency (week) [3, 10] | Tumor Volume (mm^3) [3, 10] | CAT ([4]; dose 5 mg/kg) | CAT ([4]; dose 50 mg/kg) | TBARS ([4]; dose 5 mg/kg) [nmol/mg] | TBARS ([4]; dose 50 mg/kg) [nmol/mg] | GSH ([4]; dose 50 mg/kg) [mg/g] | SOD (U/mg) ([4]; dose 5 mg/kg) | SOD (U/mg) ([4]; dose 50 mg/kg) | TP ([4]; dose 50 mg/kg) [g/L] | further results |
| --- | --- | --- | --- | --- | --- | --- | --- | --- | --- | --- | --- | --- | --- | --- | --- | --- | --- | --- | --- | --- | --- |
| CNCCOc1ccc(C(=O)O[C@@H]2/C=C/C(=O)O[C@@H](O)CCC/C=C/[C@@H]3C[C@H](O)C[C@H]32)cc1C(C)=O [Compound 3DPQ-1, (1R,2E,6R,10E,11aS,13S,14aR)-6,13-dihydroxy-4-oxo-4,6,7,8,9,11a,12,13,14,14a-decahydro-1H-cyclopenta[f][1]oxacyclotridecin-1-yl 3-acetyl-4-(2-(methylamino)ethoxy)benzoate] | 91 | 94 | 41.8 | 74.33 ± 0.46 | 0.08 ^†,‡,§ | lobuloalveolar unit (LaU) and cuboidal epithelial cells (CE) | 3.38 ± 0.31 ^i,*^,†,‖ week | 9 * week | 1.09 ± 0.23 *^,†,‡,‖ mm^3 | 2.04 ± 0.35 *^,†,§,┴ week | 12 *^,† week | 0.68 ± 0.35 *^,†,§,┴ mm^3 | 16.21±0.77 | 17.35±0.56 | 0.96 | 0.65 | 9.35 ± 0.45 | 7.65±0.63 | 8.83±0.51 | 37.21 | breast section histopathology ([2]; 50 mg/kg of bwt): lobuloalveolar unit (LaU) and cuboidal epithelial cells (CE); IC50 (MDA-MB-231 cell lines; [11]): 72.44 ± 0.32 nM; WL after MFD (day 1, mg) [5]: 310.34 ± 0.34 ^i mg; p53 promoter activity, fold higher than the one provoked by Ral ([6]; higher concentration (1 nM)): 0.66 fold; p53 promoter activity, fold higher than the one provoked by Ral ([6]; lower concentration (0.1 nM)): 0.733 fold; IC50 at 48 h [7]: > 100 nM; IC50 [8]: 0.94 ± 0.36 nM; IC50 (ERα): > 100 nM; IC50 [9]: > 100 nM; Cell Cycle (%) G0/G1 (MCF-7 cells; 0.1 nM): 72.62 ± 2.47 *^,†,‡,§ %; Cell Cycle (%) G2/M (MCF-7 cells; 0.1 nM): 17.40 ± 3.63 *^,†,‡,§ %; Cell Cycle (%) S (MCF-7 cells; 0.1 nM): 9.98 ± 1.65 *^,†,‡,§ %; Cell Cycle (%) G0/G1 (MCF-7 cells; 1 nM): 75.08 ± 2.13 *^,†,‡,§ %; Cell Cycle (%) G2/M (MCF-7 cells; 1 nM): 14.24 ± 2.54 *^,†,‡,§ %; Cell Cycle (%) S (MCF-7 cells; 1 nM): 10.69 ± 1.42 *^,†,‡,§ % |
| CC(=O)c1cc(C(=O)O[C@@H]2/C=C/C(=O)O[C@@H](O)CCC/C=C/[C@@H]3C[C@H](O)C[C@H]32)ccc1OCCN(C)C [Compound 3DPQ-2, (1R,2E,6R,10E,11aS,13S,14aR)-6,13-dihydroxy-4-oxo-4,6,7,8,9,11a,12,13,14,14a-decahydro-1H-cyclopenta[f][1]oxacyclotridecin-1-yl 3-acetyl-4-(2-(dimethylamino)ethoxy)benzoate] | 92 | 94 | 43.4 | 77.24 ± 0.42 | 0.06 ^†,‡,§ | lobuloalveolar unit (LaU) and cuboidal epithelial cells (CE) | 3.34 ± 0.57 *^,†,‖ week | 9 * week | 0.96 ± 0.41 *^,†,‡,‖ mm^3 | 1.98 ± 0.45 *^,†,§,┴ week | 12 *^,† week | 0.69 ± 0.23 *^,†,§,┴ mm^3 | 15.54±0.51 | 17.31±0.63 | 0.56 | 0.75 | 10.35 | 9.63±0.56 | 12.3±0.36 | 41.54 | IC50 (MDA-MB-231 cell lines; [11]): 72.42 ± 0.47 nM; GSH ([4]; dose 5 mg/kg): 9.96 mg/g; WL after MFD (day 1, mg) [5]: 305.03 ± 0.66 mg; p53 promoter activity, fold higher than the one provoked by Ral ([6]; higher concentration (1 nM)): 0.66 fold; p53 promoter activity, fold higher than the one provoked by Ral ([6]; lower concentration (0.1 nM)): 0.733 fold; IC50 at 48 h [7]: > 100 nM; IC50 [8]: 0.99 ± 0.35 nM; IC50 (ERα): > 100 nM; IC50 [9]: > 100 nM; Cell Cycle (%) G0/G1 (MCF-7 cells; 0.1 nM): 73.64 ± 5.32 *^,†,‡,§ %; Cell Cycle (%) G2/M (MCF-7 cells; 0.1 nM): 14.48 ± 2.54 *^,†,‡,§ %; Cell Cycle (%) S (MCF-7 cells; 0.1 nM): 11.88 ± 0.87 *^,†,‡,§ %; Cell Cycle (%) G0/G1 (MCF-7 cells; 1 nM): 76.10 ± 1.43 *^,†,‡,§ %; Cell Cycle (%) G2/M (MCF-7 cells; 1 nM): 11.32 ± 3.25 *^,†,‡,§ %; Cell Cycle (%) S (MCF-7 cells; 1 nM): 12.59 ± 1.57 *^,†,‡,§ % |
| CC(=O)c1cc(C(=O)OC2/C=C/C(=O)O[C@@H](O)CCC/C=C/[C@@H]3C[C@H](O)C[C@@H]23)ccc1OCCN1CCC=C(C(=O)O)C1 (stereo partly drawn) [Compound 3DPQ-3, 1-(2-(2-acetyl-4-((((2E,6R,10E,11aS,13S,14aR)-6,13-dihydroxy-4-oxo-4,6,7,8,9,11a,12,13,14,14a-decahydro-1H-cyclopenta[f][1]oxacyclotridecin-1-yl)oxy)carbonyl)phenoxy)ethyl)-1,2,5,6-tetrahydropyridine-3-carboxylic acid] | 90 | 93 | 42.1 | 74.86 ± 0.14 | 0.08 ^†,‡,§ | lobuloalveolar unit (LaU) and cuboidal epithelial cells (CE) | 2.18 ± 0.69 *^,†,‡,‖ week | 12 *^,†,‡ week | 0.78 ± 0.43 *^,†,‡,‖ mm^3 | 1.16 ± 0.64 *^,†,§,┴ week | 15 *^,†,§ week | 0.66 ± 0.21 *^,†,§,┴ mm^3 | 17.46±0.82 | 18.32±0.63 | 0.24 | 0.56 ± 0.32 | 9.74 | 7.32±0.18 | 11.46±0.36 | 46.47 | breast section histopathology ([2]; 50 mg/kg of bwt): lobuloalveolar unit (LaU) and cuboidal epithelial cells (CE); IC50 (MDA-MB-231 cell lines; MDA-MB-231, 48 h): 86.63 ± 0.68 nM; GSH ([4]; dose 5 mg/kg): 9.15 mg/g; TP ([4]; dose 5 mg/kg): 38.32 g/L; WL after MFD (day 1, mg) [5]: 320,45 ± 0.62 mg; p53 promoter activity, fold higher than the one provoked by Ral ([6]; higher concentration (1 nM)): 0.61 fold; p53 promoter activity, fold higher than the one provoked by Ral ([6]; lower concentration (0.1 nM)): 0.68 fold; IC50 at 48 h [7]: > 100 nM; IC50 [8]: 0.84 ± 0.74 nM; IC50 (ERα): > 100 nM; IC50 [9]: > 100 nM; Cell Cycle (%) G0/G1 (MCF-7 cells; 0.1 nM): 72.99 ± 1.32 *^,†,‡,§ %; Cell Cycle (%) G2/M (MCF-7 cells; 0.1 nM): 18.03 ± 1.65 *^,†,‡,§ %; Cell Cycle (%) S (MCF-7 cells; 0.1 nM): 8.98 ± 1.64 *^,†,‡,§ %; Cell Cycle (%) G0/G1 (MCF-7 cells; 1 nM): 75.45 ± 1.53 *^,†,‡,§ %; Cell Cycle (%) G2/M (MCF-7 cells; 1 nM): 14.87 ± 2.43 *^,†,‡,§ %; Cell Cycle (%) S (MCF-7 cells; 1 nM): 9.69 ± 0.94 *^,†,‡,§ % |
